The NIST ThermoML archive (doi:10.1016/j.jct.2017.05.001)

Experiment: wn = mass fraction of the nth substance listed
Conditions: 353.15 K, Liquid; for mass density: Vibrating tube method; for viscosity: Falling or rolling sphere viscometry

CN(C)CCO [2-(N,N-dimethylamino)ethanol] + O
Conditions | mass density, w1 = 0.1005 [kg/m3] | mass density, w1 = 0.202 [kg/m3] | mass density, w1 = 0.3005 [kg/m3] | mass density, w1 = 0.3995 [kg/m3] | viscosity, w1 = 0.1005 [mPa·s] | viscosity, w1 = 0.202 [mPa·s] | viscosity, w1 = 0.3005 [mPa·s] | viscosity, w1 = 0.3995 [mPa·s]
10000 kPa | – | – | – | 945.8 | – | – | – | –
15000 kPa | 971.6 | 964.5 | 956.9 | 948.1 | 0.4699 | 0.6195 | 0.8321 | 1.09
20000 kPa | 973.8 | 966.7 | 959.1 | 950.5 | 0.472 | 0.6229 | 0.8407 | 1.105
25000 kPa | – | – | – | – | 0.4744 | 0.6275 | 0.8485 | 1.118
30000 kPa | 978 | 971 | 963.4 | 954.9 | 0.4772 | 0.6338 | 0.856 | 1.135
40000 kPa | 982 | 975 | 967.5 | 959.2 | 0.4824 | 0.6411 | 0.875 | 1.167
50000 kPa | 986 | 978.9 | 971.6 | 963.3 | – | – | – | –
60000 kPa | 989.9 | 982.7 | – | – | 0.491 | 0.659 | 0.9078 | 1.225
